The text below walks through data of patent publication US4371463A, “Enzyme-resistant opiate pentapeptides” (priority 1977, dated 1983).

Series [1] relates to rats. The series can be described thus: Analgesia after intracerebral microinjection in rats (tail-flick, flinch-jump, limb pinch). Format: in vivo, rat. The protocol:
Sprague-Dawley rats were stereotaxically implanted with chronic indwelling cannulae guides constructed from 23 gauge TW stainless steel tubing and fitted with stilettes of corresponding length. […] Testing was initiated approximately one week following surgery. The compounds being assessed for analgesic activity were dissolved in pyrogen-free water and microinjected at various dose levels in a volume 1 μl through 30 gauge injectors which protruded 2 mm past the guide cannulae tips.
Analgesia was assessed by the D'Amour and Smith "tail-flick" procedure, the "flinch-jump" test, and by subjectively evaluating an animal's reaction to pinches of the limbs with forceps. In the "tail-flick" test, a high intensity light was focused on a rat's tail which had been blackened with a felt-tip pen, and the time that it took an animal to remove its tail from this radiant heat was measured to the nearest 0.5 second. In the "flinch-jump" test, AC shock intensity at which an animal jumped and squealed was quantified 15 minutes after an injection (immediately after testing in the tail-flick test). Reactions to limb pinches were also noted at this time. Baseline measures were always taken approximately one hour prior to injection. All animals were tested at 1, 5, 15, 30, 60, 120, and 180 minutes after injection and then at one hour intervals until their response latencies had recovered to baseline levels.

For series [2], the target named is opiate receptors. The series can be described thus: Opiate receptor affinity by inhibition of stereospecific 3H-naloxone binding to rat brain membranes. To be noted: for IC50: rat brain membranes, 1 h at 0° C., 100 mM NaCl, 1.3 nM 3H-naloxone, read-out: Opiate Receptor Affinity (concentration causing 50% inhibition of stereospecific 3H-naloxone binding); for opiate receptor affinity, fold greater than the corresponding L-Ala2 isomer: vs L-Ala2-Met-enkephalin-amide. As for the experimental part: Male rats weighing 180-200 g (Sprague-Dawley) were decapitated and each brain with the cerebellum removed was homogenized in 150 mls of ice-cold standard buffer (0.05 M Tris-HCl, pH 7.0 at 25° C.). After refrigerated centrifugation at 12,000×g, the membranes were reconstituted in the standard buffer. After recentrifugation, each brain was suspended in 10 mls of the standard buffer. Aliquots of the freshly prepared membrane preparation (100 μl) were incubated for one hour at 0° C. with various concentrations of the pentapeptide and 100 mM NaCl in a final volume of 0.5 ml with ^3 H-naloxane (New England Nuclear, 34 Ci/mmole) in a concentration of 1.3 nM (20,000 cpm). Incubation was begun with the addition of brain membranes, which were added last. After rapid filtration and washing with two 7 ml portions of ice-cold standard buffer, membrane-laden filters were transferred and counted at 40-45% efficiency at least six hours after shaking with detergent scintillation fluor (Aquasol, New England Nuclear). Control incubations containing levallorphan (100 nM) or dextrallorphan (100 nM) were included. Stereospecific binding (^3 H-naloxone bound in the presence of levallorphan subtracted from binding in the presence of dextrallorphan) represented 85-90% of the total bound naloxane in all experiments. Control values in all experiments ranged between 2000-2800 cpm. From a plot of the percent inhibition of stereospecific ^3 H-naloxane binding as a function of pentapeptide concentration, the opiate receptor affinity of the pentapeptide was determined as that concentration of pentapeptide, in μM, causing 50% inhibition of stereospecific ^3 H-naloxone binding. In this test, the lower the numerical value obtained, the higher is the opiate receptor affinity of the pentapeptide.

Series [3] can be described thus: Preincubation with rat brain membranes under physiological conditions at 37° C., then residual opiate receptor inhibitory activity. Format: in vitro ADME.
The subject of series [4] is rat brain opiate receptors. To be noted: cited from earlier work.
The subject of series [5] is rat. To be noted: cited from earlier work; for duration of analgesia: injected directly into active brain sites.
[6] abbreviates: 5-10 μg microinjected into rat brain.

Square brackets hold non-standard residues; d marks the D form. Ends that are not written are not given here. Peptide text beside a SMILES is read from it.

With `CSCC[C@H](NC(=O)[C@H](Cc1ccccc1)NC(=O)CNC(=O)[C@@H](C)NC(=O)[C@@H](N)Cc1ccc(O)cc1)C(N)=O` [D-Ala^2 -Met-enkephalin-amide], the “intensity of analgesia compared with 5 μg of morphine” value in series [1] (10 μg microinjected, 1 and 2 hours after injection) was “not as intense”. Besides, in series [1] (10 μg microinjected, rat), the “persistence of analgesia compared with 5 μg of morphine” value is recorded as “about the same length of time”. In series [1] (setting [6]), the “analgesic effects compared with comparable dose levels of morphine” value is “almost as potent and long-lasting”; the “duration of action (analgesia)” value is given as “several hours”. In addition, the analgesia elicited entry in series [1] (5-10 μg microinjected, periaqueductal gray, rat) was “quite effective in eliciting analgesia”. Moreover, the “persistence of analgesia after injection” value in series [1] (5-10 μg microinjected, rat) is reported as “three”. Besides, in series [1] (naloxone 2 mg/kg i.p. 15 minutes before 10 μg microinjection), the “effect of naloxone preinjection on analgesia” value is given as “almost complete reversal of analgesia”. In series [2], the IC50 is 400 nM and the “opiate receptor affinity, fold greater than the corresponding L-Ala2 isomer” value came to 10 fold.

With `CSCC[C@H](NC(=O)[C@H](Cc1ccccc1)NC(=O)CNC(=O)[C@@H](C)NC(=O)[C@@H](N)Cc1ccc(O)cc1)C(=O)O` [D-Ala^2 -Met-enkephalin], the “duration of action (analgesia)” value in series [1] (setting [6]) is listed as “several hours”. The “analgesia results compared with D-Ala2-Met-enkephalin-amide” value in series [1] (microinjected, rat) is “quite similar”. In addition, the “analgesic effects compared with comparable dose levels of morphine” value in series [1] (rat, in vivo) was “almost as potent and long-lasting”. Further, in series [2], the IC50 was 400 nM and the “opiate receptor affinity, fold greater than the corresponding L-Ala2 isomer” value amounted to 10 fold.

For the compound `CSCC[C@H](NC(=O)[C@H](Cc1ccccc1)NC(=O)CNC(=O)[C@@H](Cc1ccccc1)NC(=O)[C@@H](N)Cc1ccc(O)cc1)C(N)=O` [D-Phe^2 -Met-enkephalin-amide] (H-Y[dF]GFM-NH2), in series [2], the IC50 turned out to be 2000 nM.

Take `CSCC[C@H](NC(=O)[C@H](Cc1ccccc1)NC(=O)CNC(=O)[C@H](NC(=O)[C@@H](N)Cc1ccc(O)cc1)C(C)C)C(N)=O` [D-Val^2 -Met-enkephalin-amide] (H-Y[dV]GFM-NH2): in series [1] (microinjected, rat), the “dose level needed to produce the same analgesic response as 5 μg of D-Ala2-Met-enkephalin-amide” value was 20 µg. The IC50 in series [2] is 4000 nM.

For `CSCC[C@H](NC(=O)[C@H](Cc1ccccc1)NC(=O)CNC(=O)[C@H](C)NC(=O)[C@@H](N)Cc1ccc(O)cc1)C(N)=O` [L-Ala^2 -Met-enkephalin-amide, reference compound], the analgesia elicited entry in series [1] (10 μg microinjected, rat) is recorded as “failed to elicit any significant analgesia”. Moreover, the IC50 in series [2] was 4000 nM. In addition, the “preincubation time after which complete loss of opiate receptor inhibitory activity resulted” value in series [3] is 60 min.

For the compound `CC(C)C[C@H](NC(=O)[C@H](Cc1ccccc1)NC(=O)CNC(=O)CNC(=O)[C@@H](N)Cc1ccc(O)cc1)C(=O)O` [Leu-enkephalin, H-L-Tyr-Gly-Gly-L-Phe-L-Leu-OH, reference compound], the IC50 in series [2] stood at 700 nM.

For `CSCC[C@H](NC(=O)[C@H](Cc1ccccc1)NC(=O)CNC(=O)CNC(=O)[C@@H](N)Cc1ccc(O)cc1)C(=O)O` [Met-enkephalin, H-L-Tyr-Gly-Gly-L-Phe-L-Met-OH], in series [1] (120 μg microinjected, rat), the analgesia elicited result was “relatively low level of analgesia” and the “time after injection by which analgesia returned to pre-drug level” value is ≤ 5 min. For the same compound, the “affinity for rat brain opiate receptors relative to morphine” value in series [4] was “about half”. The IC50 in series [2] came to 200 nM. In addition, the “preincubation time after which complete loss of opiate receptor inhibitory activity resulted” value in series [3] was found to be 20 min. In addition, the duration of analgesia entry in series [5] is on record as “several minutes”. Besides, the “analgesic potency, fold weaker than morphine” value in series [5] (rat, in vivo) is “at least 50 fold”.

As to `CSCC[C@H](NC(=O)[C@H](Cc1ccccc1)NC(=O)CNC(=O)CN(C)C(=O)[C@@H](N)Cc1ccc(O)cc1)C(N)=O` [Sar^2 -Met-enkephalin-amide], the IC50 in series [2] stood at 8000 nM.

With `CN1CC[C@]23c4c5ccc(O)c4O[C@H]2[C@@H](O)C=C[C@H]3[C@H]1C5` [morphine], in series [5], the duration of analgesia entry was “several hours”.

For the compound “YPGFM-NH2 [L-Pro^2 -Met-enkephalin-amide]”, the IC50 in series [2] came to 90000 nM.
